Results as given in US20150352108A1, “AMINO-PYRIMIDINE COMPOUNDS AS INHIBITORS OF TBK1 AND/OR IKK EPSILON” (Alzheimer's Institute of America, priority 2009, published 2015).
pIC50: −log10 of the molar value.

Legend:
IKKε = biological target: T1, IKKε (Homo sapiens, UniProt Q14164); experiment: In-vitro IKKε kinase assay ([γ33]ATP filter-plate); assay type: biochemical; details: text bins; read-out: IC50 for inhibition of the kinase activity of IKKε
T1 construct: His-tag; made in house; host or cells: Sf9 insect cells
T1 sequence (Q14164 1-716): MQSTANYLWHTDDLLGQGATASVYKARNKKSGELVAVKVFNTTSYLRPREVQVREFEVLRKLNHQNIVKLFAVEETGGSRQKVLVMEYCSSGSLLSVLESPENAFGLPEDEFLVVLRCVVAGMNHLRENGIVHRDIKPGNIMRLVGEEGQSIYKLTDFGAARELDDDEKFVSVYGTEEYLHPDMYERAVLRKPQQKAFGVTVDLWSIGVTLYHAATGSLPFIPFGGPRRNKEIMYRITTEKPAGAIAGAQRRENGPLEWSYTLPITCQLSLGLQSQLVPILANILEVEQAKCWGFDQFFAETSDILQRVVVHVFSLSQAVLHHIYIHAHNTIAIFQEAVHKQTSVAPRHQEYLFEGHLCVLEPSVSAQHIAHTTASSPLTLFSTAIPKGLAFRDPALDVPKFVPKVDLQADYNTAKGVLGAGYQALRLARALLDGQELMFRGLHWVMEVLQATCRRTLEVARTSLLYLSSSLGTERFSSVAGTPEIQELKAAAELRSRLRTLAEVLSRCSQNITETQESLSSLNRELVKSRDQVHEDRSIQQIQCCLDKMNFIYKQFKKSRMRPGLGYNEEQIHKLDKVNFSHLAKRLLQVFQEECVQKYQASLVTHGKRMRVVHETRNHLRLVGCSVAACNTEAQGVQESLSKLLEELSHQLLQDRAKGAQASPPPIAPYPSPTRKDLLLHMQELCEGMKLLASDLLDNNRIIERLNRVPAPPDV
Method in brief: (§1)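 His-tagged Sf9-expressed kinases at 0.1 or 0.02 μg/ml (TBK1) and 0.1 or 0.015 μg/ml (IKKε) for normal and sensitized formats, with myelin basic protein or casein substrate. ATP was at 2×Km (60 μM TBK1, 32 μM IKKε) plus 0.3 μCi [γ33]ATP. Reactions ran 30-45 min, were captured on P-81 filters, and counts were normalized to DMSO.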

[1] = test system: IKKε-mediated phosphorylation of IRF3; experiment: In-situ phosphorylation of IRF3 (pIRF3 Ser396 ELISA) in HEK293T cells cotransfected with IRF3 and IKKε; assay type: cell-based; details: Homo sapiens, HEK-293T; HEK293T cells, 20 hours, text bins; read-out: IC50 for inhibition of the in-situ IKKε-mediated phosphorylation of IRF3
Procedure: HEK293T cells were cotransfected in a 10-cm dish with IRF3 and IKKε expression plasmids using Lipofectamine 2000 (Invitrogen, Carlsbad, Calif.). The following day, cells were replated at 20,000 per well in 96-well plates and treated with test compounds (compounds according to Formula I) for 20 hours. Cell lysates were prepared and analyzed using an ELISA for phospho-Ser396 (anti-IRF3 capture antibody, Santa Cruz Biotechnology, Inc., Santa Cruz, Calif.; anti-p-Ser396 IRF3 detection antibody, Cell Signaling, Danvers, Mass.). pIRF3 levels in compound treated cells were normalized to DMSO treated cells (no compound). Cell viability was assayed in a parallel set of plates to monitor cytotoxic effects of the test compounds (CellTiter-Glo, Promega, Inc., Madison, Wis.). TBK1 activity was tested by Western blotting using a phospho-specific IRF7 antibody. Similar to above, HEK293T cells were transfected with IRF7 and TBK1 expression plasmids. Cells were seeded in 12-well plates at 150,000 per well and treated overnight with test compounds. Protein lysates were prepared and processed for Western blotting followed by detection using a phosphor-Ser477/Ser479 IRF7 antibody (BD Biosciences, San Jose, Calif.)

TBK1 = biological target: T2, TBK1 (Homo sapiens, UniProt Q9UHD2); experiment: In-vitro TBK1 kinase assay ([γ33]ATP filter-plate); assay type: biochemical; details: text bins; read-out: IC50 for inhibition of the kinase activity of TBK1
T2 construct: His-tag; made in house; host or cells: Sf9 insect cells
T2 sequence (Q9UHD2 1-729): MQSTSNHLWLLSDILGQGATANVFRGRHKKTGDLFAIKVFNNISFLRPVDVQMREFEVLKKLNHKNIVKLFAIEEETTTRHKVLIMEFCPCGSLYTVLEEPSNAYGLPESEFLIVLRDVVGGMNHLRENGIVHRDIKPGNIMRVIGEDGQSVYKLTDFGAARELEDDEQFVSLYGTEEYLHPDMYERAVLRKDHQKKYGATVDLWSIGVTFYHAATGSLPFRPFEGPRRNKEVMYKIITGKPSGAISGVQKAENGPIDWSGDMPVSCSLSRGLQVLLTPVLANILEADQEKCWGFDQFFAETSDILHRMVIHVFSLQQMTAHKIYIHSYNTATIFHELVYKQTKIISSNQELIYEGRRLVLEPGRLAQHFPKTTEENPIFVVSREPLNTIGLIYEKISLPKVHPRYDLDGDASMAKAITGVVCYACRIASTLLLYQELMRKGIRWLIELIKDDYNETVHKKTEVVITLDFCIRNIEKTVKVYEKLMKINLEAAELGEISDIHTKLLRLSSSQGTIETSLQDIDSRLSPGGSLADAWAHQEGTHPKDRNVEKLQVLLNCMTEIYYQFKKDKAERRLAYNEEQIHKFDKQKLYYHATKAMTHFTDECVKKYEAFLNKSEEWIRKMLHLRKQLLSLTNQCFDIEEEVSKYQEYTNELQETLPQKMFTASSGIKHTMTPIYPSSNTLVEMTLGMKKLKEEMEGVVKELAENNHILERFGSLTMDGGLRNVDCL
Method in brief: as §1

SMILES | pIC50 (IKKε) | pIC50 [1] | pIC50 (TBK1)
COCC(=O)Nc1cccc(Nc2nccc(-c3ccc(OC4CCOCC4)c(C#N)c3)n2)c1 [compound 647, N-[3-({4-[3-Cyano-4-(tetrahydro-2H-pyran-4-yloxy)phenyl]pyrimidin-2-yl}amino)phenyl]-2-methoxyacetamide] | > 8.30 | > 7.00 | –
COC1CN(Cc2ccc(Nc3nccc(-c4ccc(O[C@@H]5CCN(C(=O)CO)C5)c(C#N)c4)n3)cc2)C1 [compound 658, 2-{[(3R)-1-(Hydroxyacetyl)pyrrolidin-3-yl]oxy}-5-[2-({4-[(3-methoxyazetidin-1-yl)methyl]phenyl}amino)pyrimidin-4-yl]benzonitrile] | > 8.30 | 6.30 to 6.60 | –
C[C@H](O)C(=O)N1CCC(Oc2ccc(-c3ccnc(Nc4ccc(F)c(OCCN)c4)n3)cc2C#N)CC1 [compound 655] | > 8.30 | 6.30 to 6.60 | –
N#Cc1cc(-c2ccnc(Nc3ccc(S(=O)(=O)Nc4ccccn4)cc3)n2)ccc1OC1CCOCC1 [compound 593, 4-({4-[3-Cyano-4-(tetrahydro-2H-pyran-4-yloxy)phenyl]pyrimidin-2-yl}amino)-N-(pyridin-2-yl) benzenesulfonamide] | > 8.30 | > 7.00 | –
CN(C)Cc1cccc(Nc2nccc(-c3ccc(OC4CCOCC4)c(C#N)c3)n2)c1 [compound 548, 5-[2-({3-[(Dimethylamino)methyl]phenyl}amino)pyrimidin-4-yl]-2-(tetrahydro-2H-pyran-4-yloxy)benzonitrile] | > 8.30 | > 7.00 | –
COc1cc(Nc2nccc(-c3ccc(OCC4CC4)c(C#N)c3)n2)ccc1CN1CC(OC)C1 [compound 617, 2-(Cyclopropylmethoxy)-5-[2-({3-methoxy-4-[(3-methoxyazetidin-1-yl)methyl]phenyl}amino)pyrimidin-4-yl]benzonitrile] | > 8.30 | 6.60 to 7.00 | –
N#Cc1cc(-c2nc(Nc3ccc(N4CCOCC4)cc3)ncc2F)ccc1OC1CCOCC1 [compound 592, 5-(5-Fluoro-2-{[4-(morpholin-4-yl)phenyl]amino}pyrimidin-4-yl)-2-(tetrahydro-2H-pyran-4-yloxy)benzonitrile] | > 8.30 | > 7.00 | –
CC(C)(O)C(=O)Nc1cccc(Nc2nccc(-c3ccc(OC4CCOCC4)c(C#N)c3)n2)c1 [compound 563, N-[3-({4-[3-Cyano-4-(tetrahydro-2H-pyran-4-yloxy)phentyl]pyrimidin-2-yl}amino)phenyl]-2-hydroxy-2-methylpropanamide] | > 8.30 | 6.60 to 7.00 | –
COc1cc(Nc2nccc(-c3ccc(OC4CCOCC4)c(C#N)c3)n2)ccc1C(=O)NCc1cccnc1 [Example 275, 4-({4-[3-cyano-4-(tetrahydro-2H-pyran-4-yloxy)phenyl]pyrimidin-2-yl}amino)-2-methoxy-N-(pyridin-3-ylmethyl)benzamide] | > 8.30 | – | > 8.00
CC(=O)N1CCC(Oc2ccc(-c3ccnc(Nc4ccc(N5CCOCC5)cc4)n3)cc2C#N)CC1 [Example 86, 2-[(1-Acetylpiperidin-4-yl)oxy]-5-(2-{[4-(morpholin-4-yl)phenyl]amino}pyrimidin-4-yl)benzonitrile] | 7.30 to 8.30 | – | 7.00 to 8.00
N#Cc1cc(-c2ccnc(Nc3ccc(N4CCOCC4)cc3)n2)ccc1NN1CCOCC1 [Example 285, 2-(morpholin-4-ylamino)-5-(2-{[4-(morpholin-4-yl)phenyl]amino}pyrimidin-4-yl)benzonitrile] | 7.30 to 8.30 | – | > 8.00
COc1cccc(Nc2nccc(-c3cccc(C#N)c3)n2)c1 [compound 389, 3-{2-[(3-Methoxyphenyl)amino]pyrimidin-4-yl}benzonitrile] | 6.30 to 7.30 | – | 6.30 to 7.00
COc1ccc(-c2ccnc(Nc3ccc(NC(C)=O)cc3)n2)cc1C#N [compound 361, N-(4-{[4-(3-Cyano-4-methoxyphenyl)pyrimidin-2-yl]amino}phenyl) acetamide] | 7.30 to 8.30 | – | 7.00 to 8.00
N#Cc1cc(-c2ccnc(Nc3ccc(N4CCOCC4)cc3)n2)ccc1O[C@@H]1CCNC1 [compound 470, 5-(2-{[4-(morpholin-4-yl)phenyl]amino}pyrimidin-4-yl)-2-[(3R)-pyrrolidin-3-yloxy]benzonitrile] | 7.30 to 8.30 | – | > 8.00
N#Cc1cc(-c2ccnc(Nc3ccc4scnc4c3)n2)ccc1OC1CCOCC1 [Example 15, 5-[2-(1,3-benzothiazol-5-ylamino)pyrimidin-4-yl]-2-(tetrahydro-2H-pyran-4-yloxy)benzonitrile] | > 8.30 | – | > 8.00
CC(C)(C)Oc1ccc(-c2ccnc(Nc3ccc(N4CCOCC4)cc3)n2)cc1C#N [Example 164, 2-tert-Butyoxy-5-(2-{[4-(morpholin-4-yl)phenyl]amino}pyrimidin-4-yl)benzonitrile] | > 8.30 | – | > 8.00
CS(=O)(=O)N1CCN(c2ccc(Nc3nccc(-c4ccc(OC5CCOCC5)c(C#N)c4)n3)cc2)CC1 [Example 100, 5-[2-({4-[4-(methylsulfonyl)piperazin-1-yl]phenyl}amino)pyrimidin-4-yl]-2-(tetrahydro-2H-pyran-4-yloxy)benzonitrile] | > 8.30 | – | > 8.00
COc1ccc(-c2ccnc(Nc3ccc(N4CCN(C(C)C)C(=O)C4)c(OC)c3)n2)cc1C#N [Example 38, 2-Methoxy-5-[2-({3-methoxy-4-[3-oxo-4-(propan-2-yl)piperazin-1-yl]phenyl}amino)pyrimidin-4-yl]benzonitrile] | 7.30 to 8.30 | – | > 8.00
Cc1ccc(Nc2nccc(-c3ccc(NC(=O)C(C)C)c(C#N)c3)n2)cc1OCCCN1CCOCC1 [compound 410] | 7.30 to 8.30 | – | 7.00 to 8.00
CS(=O)(=O)NCCOc1ccc(-c2ccnc(Nc3ccc(N4CCOCC4)cc3)n2)cc1C#N [Example 177, N-{2-[2-cyano-4-(2-{[4-(morpholin-4-yl)phenyl]amino}pyrimidin-4-yl)phenoxy]ethyl} methanesulfonamide] | 7.30 to 8.30 | – | 7.00 to 8.00
N#Cc1cc(-c2ccnc(Nc3ccc(N4CCOCC4)cc3)n2)ccc1OC1CCNCC1 [Example 194, 5-(2-{[4-(Morpholin-4-yl)phenyl]amino}pyrimidin-4-yl)-2-(piperidin-4-yloxy)benzonitrile] | 7.30 to 8.30 | – | > 8.00
COCCNCc1ccc(Nc2nccc(-c3ccc(NC(=O)C4CC4)c(C#N)c3)n2)cc1 [compound 557] | 7.30 to 8.30 | – | 7.00 to 8.00
